Measured values published in patent publication US8318737B2, “Compounds and compositions for treating cancer” (Canthera Therapeutics Inc., priority 2009, dated 2012).
Values after ≈ are worked out from the molar mass of the structure shown. Where a name gives a salt, the structure may show the parent alone.

Columns and labels:
[1] = precipitation of DMSO solution diluted 1:10 in phosphate buffered saline or water; type: physicochemical
Description: The compounds of the present invention may be produced using piperlongumine as a starting material yet offer numerous advantages over piperlongumine. […] The compounds of the instant invention are highly soluble in water at concentration of at least 25 mg/mL facilitating pharmaceutical preparation and delivery. Many chemotherapeutic agents transiently increase ROS levels in both cancer cells and normal cells.

solubility in water = type: physicochemical

| SMILES | concentration in DMSO that precipitated out when diluted 1:10 [1] | solubility in water (solubility in water) [mg/mL] | solubility (solubility in water) [mg/mL] |
| --- | --- | --- | --- |
| COc1cc(/C=C/C(=O)N2CCC=CC2=O)cc(OC)c1OC [piperlongumine, Piperlongumine] | more than 0.25 mg/ml | 0.1 (≈ 315 µM) |  |
| COc1cc(/C=C/C(=O)N2CCC=CC2=O)cc(OC)c1OCCN1CCOCC1 [tartrate salt of compound one] |  |  | 100 |
